What all share (experiment): inhibition of tumour cell growth, NCI panel, 48 h
Test [1] has as its system A549.
Test [2] deals with KM12.
For test [3], the system named is LOX IMVI.
Test [4] has as its system SF-268.
Test [5] has as its system SK-MEL-28.
The test system of test [6] is SK-MEL-5.
The subject of test [7] is OVCAR-4.
Test [8] has as its system OVCAR-8.
Test [9] deals with HL-60.
Test [10] relates to Malme-3M.
Test [11] concerns CAKI-1.
Test [12] has as its system SN12C.
Test [13] has as its system U-251.
For test [14], the system named is UACC-62.
Test [15] concerns SNB-75.
Test [16] deals with UO-31.
Test [17] has as its system K562.
Test [18] has as its system NCI-H226.
For test [19], the system named is SF-295.
Test [20] concerns EKVX.

Structures are written as SMILES.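 Assay format: 96-well plates, 48-hour exposure. GI50: concentration for 50% inhibition of growth.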 The source made the active and inactive calls. No stated cut-off is given here; in the data, active = GI50 up to about 1.1 µM and inactive = higher.

`C=CS(=O)(=O)c1c2cc(OC)ccc2nc2ccc(OC)cc12`: the GI50 in [1] is 17.1 µM (inactive); in [2], 9.89 µM (inactive); in test [3], 2.21 µM (inactive); in [4], 8.57 µM (inactive); in [5], 7.98 µM (inactive); in test [6], 14.1 µM (inactive). For the same compound, the GI50 was 13.1 µM (inactive) in test [7]; 3.6 µM (inactive) in test [8]; 7.96 µM (inactive) in [9]; 2.04 µM (inactive) in [10]; 4.22 µM (inactive) in [11]; 2.88 µM (inactive) in test [12]. In addition, the GI50 in test [13] is 7.05 µM (inactive); in test [14], 12.2 µM (inactive); in test [15], 12.4 µM (inactive); in test [16] it was 3.08 µM (inactive); in test [17], 4.39 µM (inactive); in test [18], 15.6 µM (inactive). The GI50 was 15 µM (inactive) in test [19] and 8.32 µM (inactive) in [20].
For `Clc1nc(Cl)nc(Nc2cccc3ccccc23)n1`, the GI50 in [1], in test [2], in test [3], in test [4], in [5] and in test [6] was > 10 µM (inactive) throughout. Besides, the GI50 in test [7] is > 10 µM (inactive); in test [8], > 10 µM (inactive); in [9], 7.98 µM (inactive); in test [10], > 10 µM (inactive); in test [11] it was > 10 µM (inactive); in test [12] it was > 10 µM (inactive). For the same compound, the GI50 in test [13], in test [14], in test [15], in test [16], in test [17] and in [18] was > 10 µM (inactive) throughout. Moreover, the GI50 in test [19] and in test [20] was > 10 µM (inactive) in each case.
In the case of `CN(C)CCNC(=O)c1cccc2[nH]c(-c3ccc(Cl)cc3)nc12`, the GI50 in test [1] was 3.66 µM (inactive); in test [2], 6.95 µM (inactive); in [3], 4.42 µM (inactive); in [4], 12.7 µM (inactive); in test [5] it was 17.1 µM (inactive); in test [6] it was 4.8 µM (inactive). Also, the GI50 in test [7] was 7.24 µM (inactive); in test [8], 4.61 µM (inactive); in test [9] it was 2.77 µM (inactive); in test [10], 6.82 µM (inactive); in test [11] it was 2.82 µM (inactive); in test [12], 5.07 µM (inactive). The GI50 in test [13] is 5.42 µM (inactive); in [14] it was 5.53 µM (inactive); in test [15] it was 4.4 µM (inactive); in test [16], 2.69 µM (inactive); in [17], 2.93 µM (inactive); in test [18], 4.59 µM (inactive). Also, the GI50 was 8.18 µM (inactive) in test [19] and 12.4 µM (inactive) in [20].
Regarding `Cc1cc(Cl)ccc1NC1=NC(=O)C(CC(=O)Nc2cccc(Cl)c2)S1` (stereo not given), the GI50 in test [1] was 20.8 µM (inactive); in test [2], 35.2 µM (inactive); in test [3] it was 13.3 µM (inactive); in [4], 46.9 µM (inactive); in [5], > 100 µM (inactive); in test [6], 24.9 µM (inactive). Moreover, the GI50 in [7] is 29.2 µM (inactive); in test [8] it was > 100 µM (inactive); in [9], 9.16 µM (inactive); in test [10], > 100 µM (inactive); in test [11] it was 8.79 µM (inactive); in [12], 53.5 µM (inactive). The GI50 in test [13] is 33.2 µM (inactive); in test [14], 22.2 µM (inactive); in test [15], 18.7 µM (inactive); in [16] it was 29.7 µM (inactive); in [17], 13.8 µM (inactive); in test [18], > 100 µM (inactive). The GI50 in test [19] is 18.5 µM (inactive); in test [20], > 100 µM (inactive).
Take `C=CCOC1=C(OCC=C)C(C2COC(C)(C)O2)OC1=O` (stereo not given): the GI50 in test [1] is > 100 µM (inactive); in test [2], > 100 µM (inactive); in test [3] it was 33.2 µM (inactive); in [4] it was > 100 µM (inactive); in [5], > 100 µM (inactive); in test [6] it was > 100 µM (inactive). For the same compound, the GI50 is > 100 µM (inactive) in test [7]; > 100 µM (inactive) in test [8]; 45 µM (inactive) in [9]; > 100 µM (inactive) in test [10]; 18.7 µM (inactive) in test [11]; > 100 µM (inactive) in test [12]. Moreover, the GI50 is > 100 µM (inactive) in [13]; > 100 µM (inactive) in test [14]; > 100 µM (inactive) in test [15]; > 100 µM (inactive) in [16]; 75.5 µM (inactive) in [17]; > 100 µM (inactive) in test [18]. For the same compound, the GI50 in [19] and in test [20] was > 100 µM (inactive) each time.
Consider `O=C1C(Cl)=C(c2ccc([N+](=O)[O-])cc2)C(=O)c2c(O)cccc21`, for which the GI50 is 3.28 µM (inactive) in test [1]; 1.11 µM (active) in test [2]; 1.39 µM (inactive) in test [3]; 0.843 µM (active) in [4]; 1.26 µM (inactive) in test [5]; 1.87 µM (inactive) in test [6]. In addition, the GI50 in [7] is 1.93 µM (inactive); in test [8] it was 1.39 µM (inactive); in test [9] it was 3.48 µM (inactive); in test [10] it was 2.09 µM (inactive); in test [11], 1.29 µM (inactive); in test [12], 2.96 µM (inactive). The GI50 in test [13] was 0.8 µM (active); in test [14], 0.508 µM (active); in test [15], 1.83 µM (inactive); in test [16] it was 1.92 µM (inactive); in test [17], 1.11 µM (active); in [18] it was 1.73 µM (inactive). Moreover, the figures for the GI50 in test [19] and in test [20] were 2.7 µM (inactive) and 3.35 µM (inactive), respectively.
`CC(NCCS(=O)(=O)O)C(=O)O` (stereo not given): the GI50 in test [1], in [2], in test [3], in [4], in test [5] and in test [6] was > 100 µM (inactive) throughout. The GI50 in test [7], in [8], in test [9], in test [10], in test [11] and in test [12] was > 100 µM (inactive) each time. The GI50 in test [13], in [14], in test [15], in [16], in [17] and in [18] was > 100 µM (inactive) throughout. For the same compound, the GI50 in [19] and in test [20] was > 100 µM (inactive) throughout.
In the case of `O=C1NCN(c2ccccc2)C12CCN(CCCSc1ccc(F)cc1)CC2`, the GI50 in test [1] is 33.1 µM (inactive); in test [2], 30.2 µM (inactive); in test [3], 10.5 µM (inactive); in [4], 28.8 µM (inactive); in [5] it was 55.2 µM (inactive); in [6], 6.44 µM (inactive). Besides, the GI50 in test [7] was 13.8 µM (inactive); in test [8], > 100 µM (inactive); in test [9], 21.8 µM (inactive); in [10] it was 21.2 µM (inactive); in test [11], > 51.5 µM (inactive); in test [12], 21.4 µM (inactive). The GI50 was > 88.5 µM (inactive) in test [13]; 27.4 µM (inactive) in [14]; 3.72 µM (inactive) in test [15]; 48.5 µM (inactive) in test [16]; 19.5 µM (inactive) in [17]; 25.5 µM (inactive) in test [18]. Moreover, the GI50 in test [19] is 39 µM (inactive); in [20] it was 28.2 µM (inactive).
Consider `C=CCN(N=O)C(=O)N(CCC)CCCCC(NC(C)=O)C(=O)NCc1ccccc1` (stereo not given), for which the GI50 in [1] was > 100 µM (inactive); in [2], 59.4 µM (inactive); in test [3] it was 67.1 µM (inactive); in test [4], > 100 µM (inactive); in test [5], > 100 µM (inactive); in [6], 67.9 µM (inactive). In addition, the GI50 in test [7] was 64.1 µM (inactive); in [8] it was > 100 µM (inactive); in test [9], 21 µM (inactive); in [10], > 100 µM (inactive); in test [11], 48.2 µM (inactive); in test [12], > 100 µM (inactive). Moreover, the GI50 was > 100 µM (inactive) in [13]; > 100 µM (inactive) in [14]; 71.8 µM (inactive) in test [15]; 88.1 µM (inactive) in test [16]; 51.6 µM (inactive) in [17]; > 100 µM (inactive) in test [18]. Also, the GI50 in test [19] and in test [20] was > 100 µM (inactive) in each case.
For the compound `O=C(O)CNS(=O)(=O)c1ccc(NC(=O)Nc2ccccc2)cc1`, the GI50 in test [1], in test [2], in test [3], in test [4], in test [5] and in [6] was > 100 µM (inactive) throughout. The GI50 in test [7] was > 100 µM (inactive); in test [8] it was > 100 µM (inactive); in test [9], > 31.6 µM (inactive); in [10], > 100 µM (inactive); in test [11], > 100 µM (inactive); in test [12], > 100 µM (inactive). The GI50 in [13] was > 100 µM (inactive); in test [14], > 38.3 µM (inactive); in test [15], > 100 µM (inactive); in [16] it was > 100 µM (inactive); in [17], > 100 µM (inactive); in test [18] it was > 100 µM (inactive). In addition, the GI50 in test [19] and in test [20] was > 100 µM (inactive) throughout.

The record behind these values is ChEMBL document CHEMBL1201862, “PubChem BioAssay data set” (2004).
